{"source": "patent US8741851B2", "about": "“Peptides having antimicrobial activity” (Universiti Malaya, priority 2012, dated 2014)", "key": {"[1]": {"test_system": "penicillin-resistant pneumococci", "experiment": "broth microdilution MIC, penicillin-resistant pneumococci", "type": "cell-based, Streptococcus pneumoniae", "settings": "20 isolates; for ER (effective range of MIC): 5×10^5 cfu/ml", "from_the_text": "(§1) The antimicrobial peptides are thereafter tested using broth microdilution assay 5×10^5 cfu/ml against a total of 60 pneumococcal isolates (20 isolates for each penicillin-susceptible, penicilin-intermediate, and penicilin-resistant pneumococci) to determine their minimum inhibitory concentration (MIC).\n(§2) The minimum inhibitory concentration of the antimicrobial peptide for Pro-His-Trp-Trp-Lys-Trp-Ala-Trp-Trp-His-His-Arg-Arg (SEQ ID NO:1), Lys-His-Trp-Trp-Lys-His-Asp-Trp-Trp-Arg-Trp-Arg-Arg (SEQ ID NO:2), and Ile-Leu-Trp-Trp-Leu-Leu-Ala-Trp-Trp-Arg-Trp-Pro-His (SEQ ID NO:3) are presented in Table 1. An effective range (ER) is defined as the range of the minimum inhibitory concentration to which the antimicrobial peptide produces detectable activity against the bacterial pathogens, whereas an effective percentage (EP) is the percentage of isolates inhibited with the effective range. From the Table 1, the SEQ ID NO:1 inhibited 95% penicillin-resistant pneumococci at the effective range of 62.5 to 250 μg/ml, 85% penicilin-intermediate pneumococci was inhibited at the effective range of 62.5 to 250 μg/ml, and 80% penicilin-susceptible pneumococci was inhibited at the effective range of 125 to 250 μg/ml. The SEQ ID NO:2 inhibited 100% of penicillin-resistant pneumococci at the effective range of 62.5 to 250 μg/ml, 95% penicilin-intermediate pneumococci was inhibited at the effective range of 125 to 250 μg/ml, and 95% penicilin-susceptible pneumococci was inhibited at the effective range of 62.5 to 250 μg/ml. […] However, the antipneumococcal activity is not detected for SEQ ID NO:3 up to the maximum concentration (250 μg/ml) tested."}, "[2]": {"experiment": "antimicrobial activity against bacterial pathogens", "type": "cell-based, Enterococcus cloacae", "settings": "Gram-negative", "procedure": "as §1\n(§3) In a preferred embodiment, the SEQ ID NO:1 is weakly effective against Acinetobacter baumannii at 125 μg/ml only. The SEQ ID NO:2 has broader spectrum which effective against Acinetobacter baumannii, Staphylococcus aureus, methicillin-resistant Staphylococcus aureus, Escherichia coli, Enterococcus cloacae at 125 μg/ml respectively."}, "Citrobacter spp.": {"test_system": "Citrobacter spp.", "experiment": "antimicrobial activity against bacterial pathogens", "type": "cell-based", "settings": "Gram-negative"}, "Pseudomonas aeruginosa": {"test_system": "Pseudomonas aeruginosa", "experiment": "antimicrobial activity against bacterial pathogens", "type": "cell-based", "settings": "Gram-negative"}, "[3]": {"test_system": "penicilin-susceptible pneumococci", "experiment": "broth microdilution MIC, penicilin-susceptible pneumococci", "type": "cell-based, Streptococcus pneumoniae", "settings": "20 isolates; for ER (effective range of MIC): 5×10^5 cfu/ml", "from_the_text": "as §1, §2"}, "Acinetobacter baumannii": {"test_system": "Acinetobacter baumannii", "experiment": "antimicrobial activity against bacterial pathogens", "type": "cell-based", "settings": "Gram-negative", "procedure": "as §1, §3"}, "Staphylococcus aureus": {"test_system": "Staphylococcus aureus", "experiment": "antimicrobial activity against bacterial pathogens", "type": "cell-based", "settings": "Gram-positive", "procedure": "as §1, §3"}, "Escherichia coli": {"test_system": "Escherichia coli", "experiment": "antimicrobial activity against bacterial pathogens", "type": "cell-based", "settings": "Gram-negative", "procedure": "as §1, §3"}, "[4]": {"test_system": "methicillin-resistant Staphylococcus aureus", "experiment": "antimicrobial activity against bacterial pathogens", "type": "cell-based", "settings": "Gram-positive", "procedure": "as §1, §3"}, "[5]": {"test_system": "penicilin-intermediate pneumococci", "experiment": "broth microdilution MIC, penicilin-intermediate pneumococci", "type": "cell-based, Streptococcus pneumoniae", "settings": "20 isolates; for ER (effective range of MIC): 5×10^5 cfu/ml", "from_the_text": "as §1, §2"}, "Streptococcus pneumoniae": {"test_system": "Streptococcus pneumoniae", "experiment": "broth microdilution MIC, all 60 pneumococcal isolates", "type": "cell-based", "settings": "for Overall EP: all 60 pneumococcal isolates irrespective of penicillin susceptibility; for overall effective percentage relative to the indolicidin class of antimicrobial peptide: higher than indolicidin, irrespective of penicillin susceptibility", "from_the_text": "as §1, §2"}, "K. pneumoniae": {"test_system": "K. pneumoniae", "experiment": "antimicrobial activity against bacterial pathogens", "type": "cell-based", "settings": "Gram-negative"}}, "note": "Where no end group is shown, it is not given here.", "data": [{"sequence": "KHWWKHDWWRWRR [SEQ ID NO:2]", "values": [{"measurement": "EP (effective percentage, isolates inhibited within ER)", "setting": "[1]", "value": 100, "unit": "%"}, {"measurement": "ER (effective range of MIC)", "setting": "[1]", "value": "62.5 to 250", "unit": "µg/mL"}, {"measurement": "antimicrobial activity (inhibitory concentration) against E. cloacae", "setting": "[2]", "value": 125, "unit": "µg/mL"}, {"measurement": "antimicrobial activity (inhibitory concentration) against Citrobacter spp.", "setting": "Citrobacter spp.", "value": 31.25, "unit": "µg/mL"}, {"measurement": "antimicrobial activity (inhibitory concentration) against P. aeruginosa", "setting": "Pseudomonas aeruginosa", "value": 62.5, "unit": "µg/mL"}, {"measurement": "EP (effective percentage, isolates inhibited within ER)", "setting": "[3]", "value": 95, "unit": "%"}, {"measurement": "ER (effective range of MIC)", "setting": "[3]", "value": "62.5 to 250", "unit": "µg/mL"}, {"measurement": "antimicrobial activity (inhibitory concentration) against A. baumannii", "setting": "Acinetobacter baumannii", "value": 125, "unit": "µg/mL"}, {"measurement": "antimicrobial activity (inhibitory concentration) against S. aureus", "setting": "Staphylococcus aureus", "value": 125, "unit": "µg/mL"}, {"measurement": "antimicrobial activity (inhibitory concentration) against E. coli", "setting": "Escherichia coli", "value": 125, "unit": "µg/mL"}, {"measurement": "antimicrobial activity (inhibitory concentration) against methicillin-resistant S. aureus", "setting": "[4]", "value": 125, "unit": "µg/mL"}, {"measurement": "EP (effective percentage, isolates inhibited within ER)", "setting": "[5]", "value": 95, "unit": "%"}, {"measurement": "ER (effective range of MIC)", "setting": "[5]", "value": "125 to 250", "unit": "µg/mL"}, {"measurement": "Overall EP", "setting": "Streptococcus pneumoniae", "value": 96.7, "unit": "%"}, {"measurement": "overall effective percentage relative to the indolicidin class of antimicrobial peptide", "setting": "Streptococcus pneumoniae", "value": "approximately two fold"}, {"measurement": "antimicrobial activity (inhibitory concentration) against K. pneumoniae", "setting": "K. pneumoniae", "value": ">250", "unit": "µg/mL"}]}, {"sequence": "ILWWLLAWWRWPH [SEQ ID NO:3]", "values": [{"measurement": "EP (effective percentage, isolates inhibited within ER)", "setting": "[1]", "value": 0, "unit": "%"}, {"measurement": "ER (effective range of MIC)", "setting": "[1]", "value": ">250", "unit": "µg/mL"}, {"measurement": "antimicrobial activity (inhibitory concentration) against E. cloacae", "setting": "[2]", "value": ">250", "unit": "µg/mL"}, {"measurement": "antimicrobial activity (inhibitory concentration) against Citrobacter spp.", "setting": "Citrobacter spp.", "value": ">250", "unit": "µg/mL"}, {"measurement": "antimicrobial activity (inhibitory concentration) against P. aeruginosa", "setting": "Pseudomonas aeruginosa", "value": ">250", "unit": "µg/mL"}, {"measurement": "EP (effective percentage, isolates inhibited within ER)", "setting": "[3]", "value": 0, "unit": "%"}, {"measurement": "ER (effective range of MIC)", "setting": "[3]", "value": ">250", "unit": "µg/mL"}, {"measurement": "antimicrobial activity (inhibitory concentration) against A. baumannii", "setting": "Acinetobacter baumannii", "value": ">250", "unit": "µg/mL"}, {"measurement": "antimicrobial activity (inhibitory concentration) against S. aureus", "setting": "Staphylococcus aureus", "value": 7.81, "unit": "µg/mL"}, {"measurement": "antimicrobial activity (inhibitory concentration) against E. coli", "setting": "Escherichia coli", "value": ">250", "unit": "µg/mL"}, {"measurement": "antimicrobial activity (inhibitory concentration) against methicillin-resistant S. aureus", "setting": "[4]", "value": ">250", "unit": "µg/mL"}, {"measurement": "EP (effective percentage, isolates inhibited within ER)", "setting": "[5]", "value": 0, "unit": "%"}, {"measurement": "ER (effective range of MIC)", "setting": "[5]", "value": ">250", "unit": "µg/mL"}, {"measurement": "Overall EP", "setting": "Streptococcus pneumoniae", "value": 0, "unit": "%"}, {"measurement": "antipneumococcal activity", "setting": "Streptococcus pneumoniae; up to the maximum concentration (250 μg/ml) tested", "value": "not detected"}, {"measurement": "antimicrobial activity (inhibitory concentration) against K. pneumoniae", "setting": "K. pneumoniae", "value": ">250", "unit": "µg/mL"}]}, {"sequence": "ILWWKWAWWRWRR [reference compound]", "values": [{"measurement": "EP (effective percentage, isolates inhibited within ER)", "setting": "[1]", "value": 45, "unit": "%"}, {"measurement": "ER (effective range of MIC)", "setting": "[1]", "value": "62.5 to 250", "unit": "µg/mL"}, {"measurement": "antimicrobial activity (inhibitory concentration) against E. cloacae", "setting": "[2]", "value": 125, "unit": "µg/mL"}, {"measurement": "antimicrobial activity (inhibitory concentration) against Citrobacter spp.", "setting": "Citrobacter spp.", "value": 62.5, "unit": "µg/mL"}, {"measurement": "antimicrobial activity (inhibitory concentration) against P. aeruginosa", "setting": "Pseudomonas aeruginosa", "value": ">250", "unit": "µg/mL"}, {"measurement": "EP (effective percentage, isolates inhibited within ER)", "setting": "[3]", "value": 65, "unit": "%"}, {"measurement": "ER (effective range of MIC)", "setting": "[3]", "value": "31.25 to 250", "unit": "µg/mL"}, {"measurement": "antimicrobial activity (inhibitory concentration) against A. baumannii", "setting": "Acinetobacter baumannii", "value": 125, "unit": "µg/mL"}, {"measurement": "antimicrobial activity (inhibitory concentration) against S. aureus", "setting": "Staphylococcus aureus", "value": 62.5, "unit": "µg/mL"}, {"measurement": "antimicrobial activity (inhibitory concentration) against E. coli", "setting": "Escherichia coli", "value": 250, "unit": "µg/mL"}, {"measurement": "antimicrobial activity (inhibitory concentration) against methicillin-resistant S. aureus", "setting": "[4]", "value": 31.25, "unit": "µg/mL"}, {"measurement": "EP (effective percentage, isolates inhibited within ER)", "setting": "[5]", "value": 30, "unit": "%"}, {"measurement": "ER (effective range of MIC)", "setting": "[5]", "value": "125 to 250", "unit": "µg/mL"}, {"measurement": "Overall EP", "setting": "Streptococcus pneumoniae", "value": 46.7, "unit": "%"}, {"measurement": "antimicrobial activity (inhibitory concentration) against K. pneumoniae", "setting": "K. pneumoniae", "value": ">250", "unit": "µg/mL"}]}, {"sequence": "PHWWKWAWWHHRR [SEQ ID NO:1]", "values": [{"measurement": "EP (effective percentage, isolates inhibited within ER)", "setting": "[1]", "value": 95, "unit": "%"}, {"measurement": "ER (effective range of MIC)", "setting": "[1]", "value": "62.5 to 250", "unit": "µg/mL"}, {"measurement": "antimicrobial activity (inhibitory concentration) against E. cloacae", "setting": "[2]", "value": ">250", "unit": "µg/mL"}, {"measurement": "antimicrobial activity (inhibitory concentration) against Citrobacter spp.", "setting": "Citrobacter spp.", "value": ">250", "unit": "µg/mL"}, {"measurement": "antimicrobial activity (inhibitory concentration) against P. aeruginosa", "setting": "Pseudomonas aeruginosa", "value": ">250", "unit": "µg/mL"}, {"measurement": "EP (effective percentage, isolates inhibited within ER)", "setting": "[3]", "value": 80, "unit": "%"}, {"measurement": "ER (effective range of MIC)", "setting": "[3]", "value": "125 to 250", "unit": "µg/mL"}, {"measurement": "antimicrobial activity (inhibitory concentration) against A. baumannii", "setting": "Acinetobacter baumannii", "value": 125, "unit": "µg/mL"}, {"measurement": "antimicrobial activity (inhibitory concentration) against S. aureus", "setting": "Staphylococcus aureus", "value": ">250", "unit": "µg/mL"}, {"measurement": "antimicrobial activity (inhibitory concentration) against E. coli", "setting": "Escherichia coli", "value": ">250", "unit": "µg/mL"}, {"measurement": "antimicrobial activity (inhibitory concentration) against methicillin-resistant S. aureus", "setting": "[4]", "value": ">250", "unit": "µg/mL"}, {"measurement": "EP (effective percentage, isolates inhibited within ER)", "setting": "[5]", "value": 85, "unit": "%"}, {"measurement": "ER (effective range of MIC)", "setting": "[5]", "value": "62.5 to 250", "unit": "µg/mL"}, {"measurement": "Overall EP", "setting": "Streptococcus pneumoniae", "value": 86.7, "unit": "%"}, {"measurement": "overall effective percentage relative to the indolicidin class of antimicrobial peptide", "setting": "Streptococcus pneumoniae", "value": "approximately two fold"}, {"measurement": "antimicrobial activity (inhibitory concentration) against K. pneumoniae", "setting": "K. pneumoniae", "value": ">250", "unit": "µg/mL"}]}]}
